The target in series [1] is T1, Glutamate receptor ionotropic, AMPA (Rattus norvegicus) (UniProt P19491+P19492+P19493+P19490). Description: Positive allosteric modulation of AMPA receptor in embryonic rat brain cells assessed as concentration required for 2-fold increase in AMPA-induced membrane depolarization after 3 mins by fluorescence assay. The format is cell-based.
In series [2] the target is T1, Glutamate receptor ionotropic, AMPA (Rattus norvegicus). Description: Positive allosteric modulation of AMPA receptor in embryonic rat brain cells assessed as potentiation of membrane depolarization after 3 mins by fluorescence assay relative to AMPA. The format is cell-based.
Series [3] addresses Glutamate receptor ionotropic, AMPA (Rattus norvegicus, UniProt P19490+P19491+P19492+P19493). Description: Positive allosteric modulation of AMPA receptor in embryonic rat brain cells assessed as potentiation of AMPA-induced membrane depolarization after 3 mins by fluorescence assay. The format is cell-based.
Series [4] in a line: Stability of the compound in PBS at pH 1 at 1 mM after 24 hrs at 25 degC HPLC analysis. To be noted: buffer, pH 1, 24 h, 1000 µM. The format is physicochemical.
The nature of series [5]: Stability of the compound in PBS at pH 7.4 at 1 mM after 24 hrs at 25 degC HPLC analysis. To be noted: buffer, pH 7.4, 24 h, 1000 µM. The format is physicochemical.

`CCN1CNS(=O)(=O)c2cc(C(=O)Oc3cccc(OCc4ccccc4)c3)ccc21`: the Activity in series [1] is over 100 µM. The max activation in series [2] is under 200%.

By EC50 is commonly meant the concentration that produces a half-maximal response. `Cc1ccccc1OC(=O)c1ccc2c(c1)S(=O)(=O)NCN2C`: the Activity in series [1] turned out to be 0.94 µM. The EC50 in series [3] was 1.72 µM. Also, in series [2], the max activation was found to be 410%.

Consider `CCN1CNS(=O)(=O)c2cc(C(=O)Oc3cccc(OC)c3)ccc21`, for which the Activity in series [1] was over 35 µM. Further, the max activation in series [2] stood at 200%.

For `CCOc1ccccc1OC(=O)c1ccc2c(c1)S(=O)(=O)NCN2C`, in series [1], the Activity is 7.08 µM. Further, the max activation in series [2] is over 360%.

On to `CCOc1ccccc1OC(=O)c1ccc2c(c1)S(=O)(=O)NCN2CC`, for which, in series [1], the Activity is 21.6 µM. Further, in series [2], the max activation is over 270%.

For the molecule `CN1CNS(=O)(=O)c2cc(C(=O)Oc3ccccc3OCc3ccccc3)ccc21`, the Activity in series [1] is over 100 µM. In addition, the max activation in series [2] is under 200%.

As to `CN1CNS(=O)(=O)c2cc(C(=O)Oc3ccccc3)ccc21`, the Activity in series [1] turned out to be 3.66 µM. For the same molecule, in series [3], the EC50 worked out at 3.65 µM. Further, the Stability entry in series [4] and in series [5] was “Stable” throughout. Further, the max activation in series [2] is 550%.

For `CCN1CNS(=O)(=O)c2cc(C(=O)Oc3ccccc3C)ccc21`, the Activity in series [1] is 3.48 µM. In addition, the EC50 in series [3] stood at 3.91 µM. The max activation in series [2] was 330%.

As to `CN1CNS(=O)(=O)c2cc(C(=O)Nc3ccccc3)ccc21`, the Activity in series [1] was over 100 µM. Besides, in series [2], the max activation was under 200%.

Regarding `COc1ccccc1OC(=O)c1ccc2c(c1)S(=O)(=O)NCN2C`, the Activity in series [1] is 6.4 µM. Further, the EC50 in series [3] was determined as 7.27 µM. The max activation in series [2] was 410%.

On to `CCc1ccccc1OC(=O)c1ccc2c(c1)S(=O)(=O)NCN2C`, for which, in series [1], the Activity is over 100 µM. Further, the max activation in series [2] is under 200%.

On to `CCN1CNS(=O)(=O)c2cc(C(=O)Oc3ccc(OC)cc3)ccc21`, for which, in series [1], the Activity is over 100 µM. Besides, the max activation in series [2] is under 200%.

For the molecule `CCN1CNS(=O)(=O)c2cc(C(=O)Oc3cccc(C)c3)ccc21`, in series [1], the Activity was over 100 µM. The max activation in series [2] was under 200%.

For the molecule `CCc1ccccc1OC(=O)c1ccc2c(c1)S(=O)(=O)NCN2CC`, the Activity in series [1] was over 100 µM. In addition, the max activation in series [2] is under 200%.

Turning to `CCN1CNS(=O)(=O)c2cc(C(=O)OCCc3ccccc3)ccc21`, the Activity in series [1] was over 100 µM. Also, the max activation in series [2] was under 200%.

Take `CCN1CNS(=O)(=O)c2cc(C(=O)Nc3ccccc3)ccc21`: the Activity in series [1] was over 100 µM. For the same molecule, the max activation in series [2] is under 200%.

Regarding `CCN(C(=O)c1ccc2c(c1)S(=O)(=O)NCN2C)c1ccccc1`, in series [1], the Activity is over 100 µM. In series [2], the max activation is under 200%.

In the case of `CCN1CNS(=O)(=O)c2cc(C(=O)Oc3ccccc3OCc3ccccc3)ccc21`, the Activity in series [1] was over 100 µM. Also, in series [2], the max activation was under 200%.

For the molecule `CN1CNS(=O)(=O)c2cc(C(=O)N(C)c3ccccc3)ccc21`, the Activity in series [1] was over 100 µM. For the same molecule, in series [2], the max activation is under 200%.

As to `CCCc1ccc(OC(=O)c2ccc3c(c2)S(=O)(=O)NCN3CC)cc1`, the Activity in series [1] is over 100 µM. Besides, the max activation in series [2] is under 200%.

With `COc1ccccc1OC(=O)c1ccc2c(c1)S(=O)(=O)NCN2`, the Activity in series [1] is over 100 µM. Moreover, the max activation in series [2] is under 200%.

With `Cc1cccc(OC(=O)c2ccc3c(c2)S(=O)(=O)NCN3C)c1`, the Activity in series [1] is over 100 µM. Further, the max activation in series [2] was under 200%.

For `CCN1CNS(=O)(=O)c2cc(C(=O)Oc3ccc(C)cc3)ccc21`, in series [1], the Activity is over 100 µM. Further, in series [2], the max activation was under 200%.

Consider `CCN1CNS(=O)(=O)c2cc(C(=O)Oc3ccccc3OC)ccc21`, for which the Activity in series [1] was 10.6 µM. Moreover, in series [2], the max activation was found to be 380%.

In the case of `CCCc1ccccc1OC(=O)c1ccc2c(c1)S(=O)(=O)NCN2CC`, the Activity in series [1] is over 100 µM. In addition, the max activation in series [2] was under 200%.

For the molecule `CCN1CNS(=O)(=O)c2cc(C(=O)OCc3ccccc3)ccc21`, the Activity in series [1] is over 100 µM. The max activation in series [2] is under 200%.

(Values after ChEMBL document CHEMBL3217522, “New substituted aryl esters and aryl amides of 3,4-dihydro-2H-1,2,4-benzothiadiazine 1,1-dioxides as positive allosteric modulators of AMPA receptors” (Medchemcomm, 2011).)
